Experimental data: patent US5096896A, “Sustained release compositions” (National Research Development Corporation, priority 1981, dated 1992)
Entries after “also recorded” stand apart in the source; their conditions may differ.

How the values were obtained:
P. berghei = assay: Experiment 5: duration of protection by tetracycline in derivative oils; assay type: in vivo, Plasmodium berghei in mice; settings: 30% tetracycline hydrochloride in oil, 100 mg sc
Protocol: This experiment (which is incomplete) was designed to ascertain the suitability of the derivatives of this invention in the administration of antibiotics. All basis experimental procedures were as described above except that the mice received 100 mg of the 30% mixtures of active substance (tetracycline as free base, or tetracycline as hydrochloride).

[1] = system: Plasmodium berghei (N strain); assay: Experiment 2: P. berghei challenge of mice after sc injection of oil/pyrimethamine mixtures; assay type: in vivo, Plasmodium berghei in mice (Tuck TFW)
Protocol: This experiment was designed to extend the observation presented above in Experiment 1. All basic experimental procedures, including the preparation of 30% w/w dispersions of pyrimethamine base in S1, S2 and S3, were performed as described above. The primary objective was to obtain confirmation of the results obtained above whilst extending the period of observation. […] Twenty-seven groups of mice, with 5 mice in each, were again selected at random from pooled male white mice (Tuck TFW) of 20 gm body weight. Individual groups received 50 mg injections sc of S1 + pyrimethamine, S2 + pyrimethamine, S3 + pyrimethamine or S2 above. The distribution of groups is shown below:
At intervals of 14 days one group of mice from each of the different classes of inocula were infected by the intravenous injection of 1×10^6 mouse erythrocytes parasitised with P. berghei (N strain).
The examination of mice for P. berghei infection was performed as described above in Experiment 1.

mice (site of injection) = assay: Tissue reaction and residual oil at the site of injection; assay type: in vivo
Protocol: (§1) Subcutaneous injections were administered in the mid dorsal, suprascapular position. Cages were examined daily and all deaths recorded. Mice were examined for evidence of local irritation at the site of injection.
(§2) An extensive toxicological investigation of the oils, either alone or in combination with antimalarials, has not been undertaken. The observations reported here are based on the behaviour and condition of mice immediately following injection of test substances, and on the development of any obvious gross pathology subsequent to drugging. All animals in experimental groups were examined at intervals for evidence of ulceration or other tissue reactions at the site of injection and mice were killed at intervals and examined for residual oil deposits and evidence of adverse tissue reactions to such deposits.

[2] = system: P. berghei drug sensitive N strain; assay: Experiment 4: protection against drug sensitive N strain P. berghei; assay type: in vivo, Plasmodium berghei in mice
Protocol: (§3) This experiment was designed to ascertain whether the sustained release composition of this invention could be utilised for the release of a mixture of active substances from a single depot. Preparations of 30% sulphadiazine + 10% pyrimethamine base in S2 (a new batch prepared as in Example 6) were blended and injected sc in 50 mg aliquots into mice in the suprascapular position. Additional groups of mice received S2 alone or no drug. Three groups of mice with S2 + drugs and 1 group with S2 alone were prepared for challenge on each of days 28, 42, 56 and 70. At each time interval one group each of the S2 + drug mice were challenged by the inoculation iv of 1×10^6 mouse erythrocytes infected with the drug sensitive N strain of P. berghei, the pyrimethamine resistant PYR strain and the sulphonamide resistant ORA strain, respectively. The group of mice with S2 alone was challenged with N strain parasites. Additional groups of control mice without oil were dosed with pyrimethamine (60 mg/kg) and orisulf (1000 mg/kg) immediately post-infection.

[3] = system: Plasmodium berghei (N strain); assay: Experiment 1: P. berghei challenge of mice after sc injection of derivative oil with or without pyrimethamine; assay type: in vivo, Plasmodium berghei in mice (Tuck TFW male white)
Protocol: In the following experiments several derivative oils of this invention, prepared as aforesaid, were evaluated and compared for suitability as matrixes for active substances in the preparation of injectable depot antimalarial systems.
Depot preparations were made up by adding, by hand mixing, powdered active substance to the respective oil at 30% w/w.
Twenty-eight groups of mice, 5 mice per group, were selected at random from pooled Tuck TFW male white mice of approximately body weight 20 g. The mice were provided with food and water ad libitum. Care was taken that the diet contained adequate levels of p-aminobenzoic acid and that the mouse stock was free from infection with Eperythrozoon coccoides.
On day 0 the groups of mice were processed as follows:
as §1
On day 7, groups (cages) 1 to 7 inclusive were infected with Plasmodium berghei (N strain). 0.2 ml of an inoculum containing 1×10^6 infected mouse erythrocytes was injected into the tail vein of each recipient mouse. The presence or absence of patent malarial infection was determined by blood film examination three days post infection and at intervals thereafter. Standard procedures were employed in the examination of Giemsa stained blood films and in the determination of parasitaemia levels. The method of infection and the techniques for assessment of parasitaemia were as described previously. Some groups in which no parasitaemia developed after the initial inoculation with P. berghei were subsequently reinfected on the days illustrated in Table 5.

[4] = system: P. berghei sulphonamide resistant ORA strain; assay: Experiment 4: protection against sulphonamide resistant ORA strain P. berghei; assay type: in vivo, Plasmodium berghei in mice; settings: 1 x 1000 mg/kg, 0 (day 42 of exp)
Protocol: as §3

[5] = system: P. berghei pyrimethamine resistant PYR strain; assay: Experiment 4: protection against pyrimethamine resistant PYR strain P. berghei; assay type: in vivo, Plasmodium berghei in mice; settings: 1 x 60 mg/kg, 0 (day 42 of exp)
Protocol: as §3

mice = assay: Toxicity of the derivative oils, alone or with drug, in mice; assay type: in vivo
Excerpt: as §2

Compound: CCOC1CCCC(COC(=O)C2CCCC(OCC)O2)O1 (centres unmarked) [Example S2]
- Duration of protection (days), tetracycline HCl (P. berghei): < 7 days
- Duration of antimalarial protection ([1]; 50 mg sc, 30% w/w pyrimethamine base): not less than 12 weeks
- Parasitaemia on days post infection ([1]; challenge day 14, day 3/4, a: only one mouse surviving): 41%
- Parasitaemia on days post infection ([1]; challenge day 14, day 7/8, a: only one mouse surviving): 80%
- Parasitaemia on days post infection ([1]; challenge day 28, day 3/4): 26%
- Parasitaemia on days post infection ([1]; challenge day 28, day 7/8): 50%
- Parasitaemia on days post infection ([1]; challenge day 42, day 3/4): 3.7%
- Parasitaemia on days post infection ([1]; challenge day 42, day 7/8): 32%
- Parasitaemia on days post infection ([1]; challenge day 56, day 3/4): 26%
- Parasitaemia on days post infection ([1]; challenge day 56, day 7/8): 70%
- Parasitaemia on days post infection ([1]; challenge day 56, day 10): 78%
- Parasitaemia on days post infection ([1]; challenge day 70, day 3/4): 23%
- Parasitaemia on days post infection ([1]; challenge day 70, day 7/8): 74%
- Parasitaemia on days post infection ([1]; challenge day 70, day 10, a: only one mouse surviving): 80%
- Parasitaemia on days post infection ([1]; challenge day 84, day 3/4): 29.6%
- Parasitaemia on days post infection ([1]; challenge day 84, day 7/8, c: one mouse of 5 patent): 70%
- Parasitaemia on days post infection ([1]; challenge day 84, day 10): 80%
- Residual injected oil at injection site (mice (site of injection); 54 days after injection): Residues of the injected material were found in each of the 5 mice; also recorded: Somewhat greater quantities, albeit small amounts
- Persistence of oil in vivo (mice (site of injection); in words): stable for a surprisingly long time in vivo
- Tissue reaction to oil at injection site (mice (site of injection); oil alone, autopsy at 54 days): No evidence of adverse tissue reaction; also recorded: no marked fibrosis or vascularisation of the oil depot site
- Mice with patent parasitaemia post-challenge ([2]; challenge day 28, day 3): 5/5
- Mice with patent parasitaemia post-challenge ([2]; challenge day 28, day 7): 5/5
- Mice with patent parasitaemia post-challenge ([2]; challenge day 42, day 3): 5/5
- Mice with patent parasitaemia post-challenge ([2]; challenge day 42, day 7): 2/2
- Mice with patent parasitaemia post-challenge ([2]; challenge day 56, day 3): 5/5
- Mice with patent parasitaemia post-challenge ([2]; challenge day 56, day 7): 5/5
- Parasitaemia (%) on days post infection ([3]; infected 7 days after drugging, day 3, 50 mg sc): 11.2%
- Parasitaemia (%) on days post infection ([3]; infected 7 days after drugging, day 10, * estimated, 1 only survivor): ~80%
- Parasitaemia (%) on days post infection ([3]; infected 21 days after drugging, day 3, 50 mg sc): 24%
- Parasitaemia (%) on days post infection ([3]; infected 21 days after drugging, day 10, * estimated, 1 only survivor): ~80%
- Parasitaemia (%) on days post infection ([3]; infected 32 days after drugging, day 3): 11.6%
- Parasitaemia (%) on days post infection ([3]; infected 32 days after drugging, day 7): 56%
- Malaria parasites in blood on day 3 post-infection ([3]; infected day 45, groups 24 and 25): no malaria parasite was observed
- Parasitaemia (%) on days post infection ([3]; infected days 45, 48 after drugging, day 3 (first value)): 0%
- Parasitaemia (%) on days post infection ([3]; infected days 45, 48 after drugging, day 3 (second value, after the slash)): 8.8%
- Parasitaemia (%) on days post infection ([3]; infected days 45, 48 after drugging, day 7): 16.4%
- Parasitaemia (%) on days post infection ([3]; infected days 45, 48 after drugging, day 10): 80%
- Minimum period of protection of mice with pyrimethamine ([3]; oil with pyrimethamine, 50 mg sc): ≥ 9 weeks

Compound: Nc1ccc(S(=O)(=O)Nc2ccnn2-c2ccccc2)cc1 [orisulf]
- Mice with patent parasitaemia post-challenge ([4]; day 3): 5/5
- Mice with patent parasitaemia post-challenge ([4]; day 7): 5/5
- Mice with patent parasitaemia post-challenge ([4]; day 10): 5/5

Compound: CCc1nc(N)nc(N)c1-c1ccc(Cl)cc1 [pyr, pyrimethamine]
- Mice with patent parasitaemia post-challenge ([5]; day 3): 5/5
- Mice with patent parasitaemia post-challenge ([5]; day 7): 4/4
- Mice with patent parasitaemia post-challenge ([5]; day 10): 4/4
- Mice dead at 24 hours (mice; mouse, in vivo): One of 5 mice

Compound: CCc1nc(N)nc(N)c1-c1ccc(Cl)cc1 [pyrimethamine isethionate]
- Mortality after dosing (mice; mouse, in vivo): all mice died within 1 hour of dosing
- Distress after dosing (mice; sc, equivalent to 750 mg/kg and 1500 mg/kg base): induced distress in animals within minutes
